These results are taken from BindingDB's records for doi:10.7270/Q2TX3CTT (Broad Institute, 2010).

Broadly, the EC50 is the concentration giving half of the maximal effect. The low end stands for higher potency in that assay, the high end for lower potency in that assay.

Each structure is given as a SMILES string. Counter-ions that a name gives are not always drawn.

Chain of Glycogen synthase kinase-3 beta (P49841 whole entry): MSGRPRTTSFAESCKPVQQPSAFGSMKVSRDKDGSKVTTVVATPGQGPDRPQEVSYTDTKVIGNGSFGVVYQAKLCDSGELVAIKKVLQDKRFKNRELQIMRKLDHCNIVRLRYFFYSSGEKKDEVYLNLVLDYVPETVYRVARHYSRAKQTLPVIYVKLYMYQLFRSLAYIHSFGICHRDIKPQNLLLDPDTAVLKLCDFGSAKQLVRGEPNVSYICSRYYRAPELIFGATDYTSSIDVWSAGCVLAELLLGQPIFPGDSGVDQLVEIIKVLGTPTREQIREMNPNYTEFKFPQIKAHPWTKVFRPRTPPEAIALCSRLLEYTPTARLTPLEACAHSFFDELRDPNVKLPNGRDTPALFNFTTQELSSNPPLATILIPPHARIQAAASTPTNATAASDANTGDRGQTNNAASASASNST

This assay addresses Glycogen synthase kinase-3 beta (Homo sapiens, UniProt P49841). Put plainly: GSK3beta kinase inhibitor potency, dose response, biochemical, luminescence, cell-free homogeneous, retest (AID 434954).
`O=C(CCS(=O)(=O)Cc1ccccc1)Nc1ncc([N+](=O)[O-])s1` [SMR000669229] gave an EC50 of 57.1 µM.
`Cc1ccccc1CN=Nc1ncnc2nc[nH]c12` [MLS000419110] yielded an EC50 of 17.2 µM.
Regarding `O=c1[nH]nc(SCCS(=O)(=O)c2ccc(F)cc2)n1-c1ccc2c(c1)OCCO2` [SMR000456167], the midpoint of the response, the EC50, lay at 24.1 µM.
Compound `CCOC(=O)COC(=O)c1ccc(O)cc1` [(2-ethoxy-2-oxoethyl) 4-hydroxybenzoate] had an EC50 of more than 300 µM.
`N#CCCn1cc(C(CC(=O)c2ccccc2)C(=O)O)c2ccccc21` (configuration not stated) [MLS000049352] gave an EC50 of more than 300 µM.
The compound `CN(Cc1nc2c(s1)CCCC2)C(=O)CCc1nnc(-c2ccc3c(c2)OCO3)o1` [SMR000318717] had an EC50 of 50 µM. This lies in the double-digit micromolar range.
Take `CC(C)CCNc1nc(N)c([N+](=O)[O-])c(NC2CCCCC2)n1`: the EC50 was more than 300 µM.
`c1ccc(-c2nc(NCCCn3ccnc3)c3oc4ccccc4c3n2)cc1` [N-[3-(1-imidazolyl)propyl]-2-phenyl-4-benzofuro[3,2-d]pyrimidinamine;hydrochloride] yielded an EC50 of 34.7 µM. That is a double-digit micromolar value.
For `CN1CCc2c(sc(NC(=O)Cc3ccccc3)c2C(N)=O)C1` [MLS000879155], the EC50 was more than 300 µM.
`Clc1ccc(CN=Nc2ncnc3nc[nH]c23)cc1` [MLS000419189] returned an EC50 of 20.4 µM.
`CNc1nc(-c2ccccc2)nc(-c2ccccc2)c1C#N` [MLS000539511] registered an EC50 of more than 300 µM.
On to `Cc1nc(Nc2ccccc2)sc1C(=O)Nc1ccccc1`, for which the EC50 is more than 300 µM.
As for `Cc1ccc(N2CSC3=C(C#N)C(c4cccs4)CC(=O)N3C2)cc1` (configuration not stated) [MLS000522486], the EC50 is more than 300 µM.
The compound `Fc1ccc(CSc2nnc(-c3ccccn3)o2)cc1` had an EC50 of more than 300 µM.
On to `Cc1ccc(C)c(S(=O)(=O)N2CCN(C(C(=O)Nc3ccc(F)cc3)c3ccccc3)CC2)c1` (configuration not stated) [2-[4-(2,5-dimethylphenyl)sulfonyl-1-piperazinyl]-N-(4-fluorophenyl)-2-phenylacetamide], for which the EC50 was more than 300 µM.
In the case of `Cc1ccc(CSc2ccc3nnc(-c4ccccn4)n3n2)cc1`, the EC50 was more than 300 µM.
Then `O=[N+]([O-])c1cc([N+](=O)[O-])c(N2CCCCCC2)cc1NCCO`, with 5.63 µM; and `O=C(NCCCN1CCCC1=O)c1c(O)n2ccsc2nc1=O` [5-hydroxy-7-oxo-N-[3-(2-oxo-1-pyrrolidinyl)propyl]-6-thiazolo[3,2-a]pyrimidinecarboxamide], with more than 300 µM; and `Cc1ccc(C(=O)NN=C2CCCc3ccccc32)c(C)c1` [MLS001005817], with more than 300 µM.
In the case of `COc1ccccc1-c1cc(=O)c2c(O)ccc([N+](=O)[O-])c2o1` [MLS000518626], the EC50 is more than 300 µM.
Then `CCc1cc(C(=O)c2ccc(OC)cc2)c(NC(=O)CN2CCN(C)CC2)s1` [N-[5-ethyl-3-(4-methoxyphenyl)carbonyl-thiophen-2-yl]-2-(4-methylpiperazin-1-yl)ethanamide], with more than 300 µM.
Turning to `CC(C)N1CCc2c(sc(NC(=O)CCc3ccccc3)c2C(N)=O)C1` [MLS000419104], the EC50 was more than 300 µM.
Consider `COc1ccc(C)cc1NC(=O)CN(C)S(=O)(=O)c1ccc2c(c1)CC(C)N2C(C)=O` (configuration not stated) [MLS001122753], for which the EC50 is more than 300 µM.
For the compound `CN(c1ncnc(N)c1[N+](=O)[O-])C1CCS(=O)(=O)C1` (configuration not stated) [SMR000347974], the EC50 was determined as 28.2 µM.
`O=C(Nc1ccc(Cl)c(Cl)c1)Nc1ccccn1` [SMR000515062] gave an EC50 of 47.2 µM.
Consider `CCc1c(C)c2ccc(O)c(CN(C)C)c2oc1=O` [8-[(dimethylamino)methyl]-3-ethyl-4-methyl-7-oxidanyl-chromen-2-one], for which the EC50 is more than 300 µM.
Then `O=C(Nc1ccccc1Cl)N1CCSc2ccccc21` [N-(2-chlorophenyl)-2,3-dihydro-4H-1,4-benzothiazine-4-carboxamide], with more than 300 µM.
In the case of `COc1ccc(C2=NOC(C(=O)Nc3cccnc3)C2)cc1` (configuration not stated) [SMR000130842], the EC50 is more than 300 µM.
As to `CCCc1cc(NCc2ccccn2)n2nc(C)c(-c3ccccc3)c2n1` [MLS000762884], the EC50 was more than 300 µM.
Then `N#CCCN1CCCc2cc(/N=N/c3ccc(C(F)(F)F)cc3)ccc21`, with more than 300 µM.
Consider `O=C(OCCCOC(=O)c1ccccc1O)c1ccccc1O` [2-hydroxybenzoic acid 3-[(2-hydroxyphenyl)-oxomethoxy]propyl ester], for which the EC50 is more than 300 µM.
For `O=S(=O)(/C=C/c1ccccc1)N1CCN(Cc2ccc3c(c2)OCO3)CC1`, the EC50 was more than 300 µM.
With `O=C(NN=Cc1cc(Br)ccc1O)c1ccccc1Cl` [N'-[(E)-(3-bromo-6-oxocyclohexa-2,4-dien-1-ylidene)methyl]-2-chlorobenzohydrazide], the EC50 was more than 300 µM.
Regarding `CCn1c(SCC(=O)Nc2ccc(F)cc2)nnc1C1CC1` [2-[(5-cyclopropyl-4-ethyl-1,2,4-triazol-3-yl)sulfanyl]-N-(4-fluorophenyl)ethanamide], the EC50 was more than 300 µM.
Take `Cc1ccc2nc(-c3ccc4c(c3)NC(=O)CO4)cn2c1` [6-(6-methyl-2-imidazo[1,2-a]pyridinyl)-4H-1,4-benzoxazin-3-one]: the EC50 was more than 300 µM.
Compound `O=S(=O)(NCCC1CC1(Cl)Cl)c1ccc(Cl)cc1` (configuration not stated) [N1-[2-(2,2-dichlorocyclopropyl)ethyl]-4-chlorobenzene-1-sulfonamide] came in with an EC50 of more than 300 µM.
Turning to `COc1cc(NC(=S)Nc2ccccn2)c(OC)cc1Cl` [1-(4-chloranyl-2,5-dimethoxy-phenyl)-3-pyridin-2-yl-thiourea], the EC50 was found to be 12.3 µM.
Then `Cc1ccccc1NC(=O)CSc1nnc2ccc(-c3ccncc3)nn12` [SMR000808359], with more than 300 µM.
`c1ccc(CSc2nnc(-c3cccnc3)o2)cc1` [3-(5-Benzylsulfanyl-[1,3,4]oxadiazol-2-yl)-pyridine] came in with an EC50 of more than 300 µM.
The compound `Nc1nc(S)c2ncn(C3OC(CO)C(O)C3O)c2n1` (configuration not stated) [2-azanyl-9-[5-(hydroxymethyl)-3,4-bis(oxidanyl)oxolan-2-yl]-3H-purine-6-thione] came in with an EC50 of more than 300 µM.
Consider `NC(=O)CSc1nnc(COc2ccc3ccccc3c2)o1` [MLS001203608], for which the EC50 is more than 300 µM.
With `Cc1ccc(C(=O)/C=C/c2ccc3ncccc3c2)cc1` [SMR000516943], the EC50 was more than 300 µM.
Turning to `CCN(Cc1ccccc1)S(=O)(=O)c1ccc2c(c1)NC(=O)CC(=O)N2` [N-ethyl-2,4-dioxo-N-(phenylmethyl)-1,5-dihydro-1,5-benzodiazepine-7-sulfonamide], the EC50 was 59.6 µM.
Then `Nc1nc(NCC2CCCO2)nc(Nc2ccc(F)cc2)c1[N+](=O)[O-]` (configuration not stated) [SMR000219528], with 5.82 µM.
On to `O=C(CN1C(=O)CCC1=O)Nc1ccc2c3c(cccc13)CC2` [N-(1,2-dihydroacenaphthylen-5-yl)-2-(2,5-dioxo-1-pyrrolidinyl)acetamide], for which the EC50 was more than 300 µM.
Turning to `O=C(Cc1ccc([N+](=O)[O-])cc1)Nc1ccc2c(c1)C(=O)NC2=O` [SMR000291894], the EC50 was more than 300 µM.
`COc1cccc2cc(C(=O)NCc3ccccc3Br)c(=O)oc12` [N-[(2-bromophenyl)methyl]-8-methoxy-2-oxo-1-benzopyran-3-carboxamide] showed an EC50 of more than 300 µM.
Regarding `CCOC(=O)C1C(C)=Nc2ncnn2C1c1ccc2c(c1)OCO2` (configuration not stated), the EC50 is more than 300 µM.
Then `COc1cc(C2OCC3C(c4cc(OC)c(OC)c(OC)c4)OCC23)cc(OC)c1OC` (configuration not stated), with more than 300 µM.
Then `CCc1ccc(C=NNC(=O)c2nnn(-c3nonc3N)c2CN2CCc3ccccc32)cc1` [1-(4-amino-1,2,5-oxadiazol-3-yl)-5-(2,3-dihydroindol-1-ylmethyl)-N-[(4-ethylphenyl)methylideneamino]triazole-4-carboxamide], with more than 300 µM; and `Cc1cc(NC(=O)CSc2nc(O)c(C#N)c(-c3ccccc3)n2)no1` [2-[(5-cyano-4-oxidanylidene-6-phenyl-1H-pyrimidin-2-yl)sulfanyl]-N-(5-methyl-1,2-oxazol-3-yl)ethanamide], with more than 300 µM; and `CCOC(=O)N1CCN(S(=O)(=O)c2cc(Br)cc3c2N(C(=O)C2CC2)CC3)CC1` [ethyl 4-[(5-bromanyl-1-cyclopropylcarbonyl-2,3-dihydroindol-7-yl)sulfonyl]piperazine-1-carboxylate], with more than 300 µM.
The compound `Oc1ccc2oc3c(c2c1)CCCC3` showed an EC50 of more than 300 µM.
`CNC(=O)c1cc2cccc(OC)c2oc1=O` returned an EC50 of more than 300 µM.
Then `CCOC(=O)C1C(C)=Nc2ncnn2C1c1ccc(N(C)C)cc1` (configuration not stated) [ethyl 7-[4-(dimethylamino)phenyl]-5-methyl-1,7-dihydro-[1,2,4]triazolo[1,5-a]pyrimidine-6-carboxylate], with more than 300 µM; and `O=C1CCCc2oc3ccc(O)cc3c21` [SMR000125008], with more than 300 µM.
On to `COc1ccc(C(=O)NCC(=O)NN=Cc2ccc(C)o2)cc1OC` [3,4-dimethoxy-N-(2-{2-[(5-methyl-2-furyl)methylene]hydrazino}-2-oxoethyl)benzamide], for which the EC50 was more than 300 µM.
For the compound `CCOC(=O)CCCSc1nnc(CCCCCN2C(=O)c3cccc4cccc(c34)C2=O)o1` [SMR000235858], the EC50 is more than 300 µM.
As to `NC1=N/C(=N\c2ccccc2)c2ccccc21` [MLS000057025], the EC50 was more than 300 µM.
Then `CCN1C(=O)/C(=N\NC(=O)C(O)c2ccccc2)c2ccccc21` (configuration not stated) [SMR000414657], with 32.4 µM.
For `CCOC(=O)c1nnn(-c2nonc2N)c1CSc1ccc(C)cc1` [SMR000020597], it took 160 µM to reach a half-maximal effect (EC50). Against the preceding compound, the EC50 is about 4.9-fold higher.
Regarding `COc1ccc2occ(C(=O)c3cccs3)c2c1`, the midpoint of the response, the EC50, lay at 4.03 µM.
For the compound `CC(Cc1c[nH]c2ccccc12)NC(=O)OCCCl` (configuration not stated), the EC50 is more than 300 µM.
`CCOC(=O)c1cnc2c(C)cccc2c1Nc1ccc(N2CCOCC2)cc1` [ethyl 8-methyl-4-[(4-morpholin-4-ylphenyl)amino]quinoline-3-carboxylate]: the EC50 is more than 300 µM.
Then `Cc1nn(Cc2ccc(Cl)c(Cl)c2)c(C)c1NC(=O)c1noc2c1CCCCC2` [SMR000023628], with more than 300 µM; and `N#Cc1ccccc1CSc1nnc(Cc2ccccc2)o1` [SMR000297282], with more than 300 µM.
As for `COc1ccc(COC(=O)C2C(C)=NC(=O)NC2c2ccc(O)c(OC)c2)cc1` (configuration not stated) [4-(4-hydroxy-3-methoxyphenyl)-6-methyl-2-oxo-3,4-dihydro-1H-pyrimidine-5-carboxylic acid (4-methoxyphenyl)methyl ester], the EC50 is more than 300 µM.
